In PubChem BioAssay (NCI):
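Assay format: 96-well plates, 48-hour exposure. At the GI50, growth is halved. Definition used: TGI = concentration required for complete inhibition of growth.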

Columns and labels:
Test in all cases: growth of human tumour cells (NCI), 48 h
[1] = system: 786-0 renal
[2] = system: A498 renal
[3] = system: A549 NSCLC
[4] = system: ACHN renal
[5] = system: BT-549 breast
[6] = system: CAKI-1 renal
[7] = system: CCRF-CEM leukemia
[8] = system: COLO 205 colon
[9] = system: DU-145 prostate
[10] = system: EKVX NSCLC
[11] = system: HCC-2998 colon
[12] = system: HCT-116 colon
[13] = system: HCT-15 colon
[14] = system: HL-60(TB) leukemia
[15] = system: HOP-62 NSCLC
[16] = system: HOP-92 NSCLC
[17] = system: HS 578T breast
[18] = system: HT29 colon
[19] = system: IGROV1 ovarian
[20] = system: K-562 leukemia
[21] = system: KM12 colon
[22] = system: LOX IMVI melanoma
[23] = system: M14 melanoma
[24] = system: MALME-3M melanoma
[25] = system: MCF7 breast
[26] = system: MDA-MB-231 breast
[27] = system: MDA-MB-435
[28] = system: MDA-MB-468 breast
[29] = system: MOLT-4 leukemia
[30] = system: NCI-H226 lung
[31] = system: NCI-H23 lung
[32] = system: NCI-H460 lung
[33] = system: NCI/ADR-RES ovarian
[34] = system: OVCAR-3 ovarian
[35] = system: OVCAR-4 ovarian
[36] = system: OVCAR-5 ovarian
[37] = system: OVCAR-8 ovarian
[38] = system: PC-3 prostate
[39] = system: RPMI-8226 leukemia
[40] = system: RXF 393 renal
[41] = system: SF-268 CNS
[42] = system: SF-295 CNS
[43] = system: SF-539 CNS
[44] = system: SK-MEL-2 melanoma
[45] = system: SK-MEL-28 melanoma
[46] = system: SK-MEL-5 melanoma
[47] = system: SK-OV-3 ovarian
[48] = system: SN12C renal
[49] = system: SNB-19 CNS
[50] = system: SNB-75 CNS
[51] = system: SR leukemia
[52] = system: SW-620 colon
[53] = system: T-47D breast
[54] = system: TK-10 renal
[55] = system: U251 CNS
[56] = system: UACC-257 melanoma
[57] = system: UACC-62 melanoma
[58] = system: UO-31 renal

Structure (SMILES): FC(F)(F)c1cc2c(Cl)ncnc2n1CCN1CCCCC1
- GI50 [1]: 39.8 µM
- TGI [1]: > 100 µM
- GI50 [2]: > 100 µM
- TGI [2]: > 100 µM
- GI50 [3]: 80.1 µM
- TGI [3]: > 100 µM
- GI50 [4]: 6.46 µM
- TGI [4]: > 100 µM
- GI50 [5]: 15 µM
- TGI [5]: 29.8 µM
- GI50 [6]: 25.3 µM
- TGI [6]: > 100 µM
- GI50 [7]: 11 µM
- TGI [7]: > 100 µM
- GI50 [8]: 52.7 µM
- TGI [8]: > 100 µM
- GI50 [9]: 30.5 µM
- TGI [9]: > 100 µM
- GI50 [10]: 16.3 µM
- TGI [10]: 85.5 µM
- GI50 [11]: 4.11 µM
- TGI [11]: 14.3 µM
- GI50 [12]: 4.86 µM
- TGI [12]: 20.3 µM
- GI50 [13]: 3.16 µM
- TGI [13]: 12.8 µM
- GI50 [14]: 2.07 µM
- TGI [14]: 7.47 µM
- GI50 [15]: 38.1 µM
- TGI [15]: > 100 µM
- GI50 [16]: 19.7 µM
- TGI [16]: 53.8 µM
- GI50 [17]: 16.4 µM
- TGI [17]: 60 µM
- GI50 [18]: 21.1 µM
- TGI [18]: 81.3 µM
- GI50 [19]: 2.98 µM
- TGI [19]: 10.3 µM
- GI50 [20]: 2.91 µM
- TGI [20]: > 100 µM
- GI50 [21]: 29.8 µM
- TGI [21]: > 100 µM
- GI50 [22]: 1.69 µM
- TGI [22]: 3.11 µM
- GI50 [23]: 12.8 µM
- TGI [23]: 33.4 µM
- GI50 [24]: 19 µM
- TGI [24]: 55.4 µM
- GI50 [25]: 19.6 µM
- TGI [25]: 76.5 µM
- GI50 [26]: 5.47 µM
- TGI [26]: 19.7 µM
- GI50 [27]: 13.1 µM
- TGI [27]: 29.9 µM
- GI50 [28]: 3.02 µM
- TGI [28]: 9.43 µM
- GI50 [29]: 10.5 µM
- TGI [29]: 55.2 µM
- GI50 [30]: 60.6 µM
- TGI [30]: > 100 µM
- GI50 [31]: 13.9 µM
- TGI [31]: 39.3 µM
- GI50 [32]: 18.3 µM
- TGI [32]: 50.6 µM
- GI50 [33]: 24 µM
- TGI [33]: 64.8 µM
- GI50 [34]: 17.6 µM
- TGI [34]: 35.5 µM
- GI50 [35]: 28.5 µM
- TGI [35]: > 100 µM
- GI50 [36]: > 100 µM
- TGI [36]: > 100 µM
- GI50 [37]: 12.5 µM
- TGI [37]: 32.8 µM
- GI50 [38]: 15.2 µM
- TGI [38]: 47.9 µM
- GI50 [39]: 31.5 µM
- TGI [39]: > 100 µM
- GI50 [40]: 15.6 µM
- TGI [40]: 40.9 µM
- GI50 [41]: 16 µM
- TGI [41]: 38.6 µM
- GI50 [42]: 22.6 µM
- TGI [42]: 86.3 µM
- GI50 [43]: 17.1 µM
- TGI [43]: 36.2 µM
- GI50 [44]: 16.5 µM
- TGI [44]: 32.9 µM
- GI50 [45]: 16 µM
- TGI [45]: 37.7 µM
- GI50 [46]: 14.9 µM
- TGI [46]: 31.1 µM
- GI50 [47]: 52.3 µM
- TGI [47]: > 100 µM
- GI50 [48]: 19.4 µM
- TGI [48]: > 100 µM
- GI50 [49]: 15.2 µM
- TGI [49]: 31.3 µM
- GI50 [50]: 10.5 µM
- TGI [50]: 22.5 µM
- GI50 [51]: 3.28 µM
- TGI [51]: 26.1 µM
- GI50 [52]: 11.2 µM
- TGI [52]: 28.7 µM
- GI50 [53]: 21.9 µM
- TGI [53]: > 100 µM
- GI50 [54]: > 100 µM
- TGI [54]: > 100 µM
- GI50 [55]: 14.1 µM
- TGI [55]: 34.9 µM
- GI50 [56]: 11.8 µM
- TGI [56]: 30.4 µM
- GI50 [57]: 12.2 µM
- TGI [57]: 30.5 µM
- GI50 [58]: 1.74 µM
- TGI [58]: 3.58 µM
